Assay results taken from patent US20110044938A1 (NYCOMED GMBH, priority 2006, published 2011).

Assays:
[1] = tested on: subclones of RKO colon adenocarcinoma cells (RKOp27 or RKOp21) arrested by Ponasterone A; assay: Alamar Blue cell viability assay, cell cycle specific mode of action: cells arrested by ectopic p27Kip1 induced by Ponasterone A versus proliferating cells; assay type: cell-based; conditions: Homo sapiens, RKO p27 induced (arrested) cells, 10 μM Ponasterone A, 72 hours, value = class bound given in Table A, read-out: −logIC50 RKO p27 induced (arrested) (converted)
How it was run: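 RKOp27 or RKOp21 cells, 15000/well in DMEM/10% FCS, either arrested by p27Kip1 induced with 10 μM Ponasterone A or proliferating without inducer; compound added after 24 h, 72 h at 37° C. Alamar Blue fluorescence (544/590 nm), viability as % of untreated cells; −log IC50 reported.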

[2] = tested on: RKO (RKOp27) human colon adenocarcinoma cells; assay: Alamar Blue cell viability assay, anti-proliferative/cytotoxic activity on proliferating RKO subclones; assay type: cell-based; conditions: RKOp27, 72 h, RKO p27 uninduced (proliferating) cells, value = class bound given in Table A, read-out: −logIC50 RKO p27 uninduced (proliferating) (converted)
How it was run: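 RKOp27 subclones (5000 cells/well) were exposed 24 h after seeding to semi-log compound dilutions in DMEM with 10% FCS, in quadruplicate, for 72 h at 37 °C. Viability was read by Alamar Blue fluorescence (544/590 nm) relative to untreated cells (1% DMSO medium). IC50 came from concentration-effect curves and is reported as −log IC50 [mol/l].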

| IC50 [1] [nM] | Compound | IC50 [2] [nM] |
| --- | --- | --- |
| ≥ 100000 | CCOc1ccccc1CCC(=O)Nc1sc2c(c1C#N)CCC(COC(=O)NCc1ccncc1)C2 (stereo not shown) [Example 181, Pyridin-4-ylmethyl-carbamic acid 3-cyano-2-[3-(2-ethoxy-phenyl)-propanoylamino]-4,5,6,7-tetrahydro-benzo[b]thiophen-6-ylmethyl ester] | ≤ 501 |
| ≥ 50100 | CCOc1ccccc1CCC(=O)Nc1sc2c(c1C#N)CCC(COC(=O)NCc1nccn1C)C2 (stereo not shown) [Example 183, (1-Methyl-1H-imidazol-2-ylmethyl)-carbamic acid 3-cyano-2-[3-(2-ethoxy-phenyl)-propanoylamino]-4,5,6,7-tetrahydro-benzo[b]thiophen-6-ylmethyl ester] | ≤ 501 |
| ≥ 100000 | COC(=O)OC1CCc2c(sc(NC(=O)CCc3cccnc3)c2C#N)C1 (stereo not shown) [Example 186, Carbonic acid 3-cyano-2-(3-pyridin-3-yl-propanoylamino)-4,5,6,7-tetrahydro-benzo[b]thiophen-6-yl ester methyl ester] | 501 to 2000 |
| ≥ 10000 | CCOc1ccccc1CCC(=O)Nc1sc2c(c1C#N)CCC(COC(=O)NCC1CCOCC1)C2 (stereo not shown) [Example 194, (Tetrahydro-pyran-4-ylmethyl)-carbamic acid 3-cyano-2-[3-(2-ethoxy-phenyl)-propanoylamino]-4,5,6,7-tetrahydro-benzo[b]thiophen-6-ylmethyl ester] | ≤ 501 |
| ≥ 100000 | CCOc1ccccc1CCC(=O)Nc1sc2c(c1C#N)CCC(COC(=O)NCc1nnc(C)o1)C2 (stereo not shown) [Example 200, (5-Methyl-[1,3,4]oxadiazol-2-ylmethyl)-carbamic acid 3-cyano-2-[3-(2-ethoxy-phenyl)-propanoylamino]-4,5,6,7-tetrahydro-benzo[b]thiophen-6-ylmethyl ester] | 501 to 2000 |
| ≥ 100000 | CCOc1ccccc1CCC(=O)Nc1sc2c(c1C#N)CCC(COC(=O)N1CCCC1)C2 (stereo not shown) [Example 201, Pyrrolidine-1-carboxylic acid 3-cyano-2-[3-(2-ethoxy-phenyl)-propanoylamino]-4,5,6,7-tetrahydro-benzo[b]thiophen-6-ylmethyl ester] | ≤ 501 |
| ≥ 100000 | CCOc1ccccc1CCC(=O)Nc1sc2c(c1C#N)CCC(OC(=O)NCc1conc1C)C2 (stereo not shown) [Example 205, (3-Methyl-isoxazol-4-ylmethyl)-carbamic acid 3-cyano-2-[3-(2-ethoxy-phenyl)-propanoylamino]-4,5,6,7-tetrahydro-benzo[b]thiophen-6-yl ester] | ≤ 501 |
| ≥ 100000 | CCOc1ccccc1CCC(=O)Nc1sc2c(c1C#N)CCC(OC(=O)NCc1nccs1)C2 (stereo not shown) [Example 206, Thiazol-2-ylmethyl-carbamic acid 3-cyano-2-[3-(2-ethoxy-phenyl)-propanoylamino]-4,5,6,7-tetrahydro-benzo[b]thiophen-6-yl ester] | ≤ 501 |
| ≥ 100000 | CCOc1ccccc1CCC(=O)Nc1sc2c(c1C#N)CCC(OC(=O)NCc1ccnn1CC)C2 (stereo not shown) [Example 209, (2-Ethyl-2H-pyrazol-3-ylmethyl)-carbamic acid 3-cyano-2-[3-(2-ethoxy-phenyl)-propanoylamino]-4,5,6,7-tetrahydro-benzo[b]thiophen-6-yl ester] | ≤ 501 |
| ≥ 100000 | CCOc1ccccc1CCC(=O)Nc1sc2c(c1C#N)CCC(OC(=O)NCc1nc(C)cs1)C2 (stereo not shown) [Example 210, (4-Methyl-thiazol-2-ylmethyl)-carbamic acid 3-cyano-2-[3-(2-ethoxy-phenyl)-propanoylamino]-4,5,6,7-tetrahydro-benzo[b]thiophen-6-yl ester] | 501 to 2000 |
| ≥ 100000 | CCOc1ccccc1CCC(=O)Nc1sc2c(c1C#N)CCC(COC(=O)NCc1nc(C)cs1)C2 (stereo not shown) [Example 214, (4-Methyl-thiazol-2-ylmethyl)-carbamic acid 3-cyano-2-[3-(2-ethoxy-phenyl)-propanoylamino]-4,5,6,7-tetrahydro-benzo[b]thiophen-6-ylmethyl ester] | ≤ 501 |

The remaining lines, values behind:

| Compound | IC50 [1] [nM] | IC50 [2] [nM] |
| --- | --- | --- |
| CCOc1ccccc1CCC(=O)Nc1sc2c(c1C#N)CCC(COC(=O)NCc1ccnn1C)C2 (stereo not shown) [Example 180, (2-Methyl-2H-pyrazol-3-ylmethyl)-carbamic acid 3-cyano-2-[3-(2-ethoxy-phenyl)-propanoylamino]-4,5,6,7-tetrahydro-benzo[b]thiophen-6-ylmethyl ester] | ≥ 100000 | ≤ 501 |
| CCOc1ccccc1CCC(=O)Nc1sc2c(c1C#N)CCC(COC(=O)NCc1cc(C)on1)C2 (stereo not shown) [Example 182, (5-Methyl-isoxazol-3-ylmethyl)-carbamic acid 3-cyano-2-[3-(2-ethoxy-phenyl)-propanoylamino]-4,5,6,7-tetrahydro-benzo[b]thiophen-6-ylmethyl ester] | ≥ 100000 | ≤ 501 |
| CCOc1ccccc1CCC(=O)Nc1sc2c(c1C#N)CCC(COC(=O)NCc1ccccn1)C2 (stereo not shown) [Example 184, Pyridin-2-ylmethyl-carbamic acid 3-cyano-2-[3-(2-ethoxy-phenyl)-propanoylamino]-4,5,6,7-tetrahydro-benzo[b]thiophen-6-ylmethyl ester] | ≥ 100000 | ≤ 501 |
| CCOc1ccccc1CCC(=O)Nc1sc2c(c1C#N)CCC(OC(=O)NCc1ncc[nH]1)C2 (stereo not shown) [Example 185, (1H-Imidazol-2-ylmethyl)-carbamic acid 3-cyano-2-[3-(2-ethoxy-phenyl)-propanoylamino]-4,5,6,7-tetrahydro-benzo[b]thiophen-6-yl ester] | ≥ 10000 | ≤ 501 |
| CCOc1ccccc1CCC(=O)Nc1sc2c(c1C#N)CCC(COC(=O)NCc1conc1C)C2 (stereo not shown) [Example 198, (3-Methyl-isoxazol-4-ylmethyl)-carbamic acid 3-cyano-2-[3-(2-ethoxy-phenyl)-propanoylamino]-4,5,6,7-tetrahydro-benzo[b]thiophen-6-ylmethyl ester] | ≥ 100000 | ≤ 501 |
| CCOc1ccccc1CCC(=O)Nc1sc2c(c1C#N)CCC(COC(=O)NCc1nccs1)C2 (stereo not shown) [Example 199, Thiazol-2-ylmethyl-carbamic acid 3-cyano-2-[3-(2-ethoxy-phenyl)-propanoylamino]-4,5,6,7-tetrahydro-benzo[b]thiophen-6-ylmethyl ester] | ≥ 100000 | ≤ 501 |
| CCOc1ccccc1CCC(=O)Nc1sc2c(c1C#N)CCC(COC(=O)OCc1ccsn1)C2 (stereo not shown) [Example 202, Carbonic acid 3-cyano-2-[3-(2-ethoxy-phenyl)-propanoylamino]-4,5,6,7-tetrahydro-benzo[b]thiophen-6-ylmethyl ester isothiazol-3-ylmethyl ester] | ≥ 100000 | ≤ 501 |
| CCOc1ccccc1CCC(=O)Nc1sc2c(c1C#N)CCC(COC(=O)OCc1nccs1)C2 (stereo not shown) [Example 203, Carbonic acid 3-cyano-2-[3-(2-ethoxy-phenyl)-propanoylamino]-4,5,6,7-tetrahydro-benzo[b]thiophen-6-ylmethyl ester thiazol-2-ylmethyl ester] | ≥ 100000 | ≤ 501 |
| CCOc1ccccc1CCC(=O)Nc1sc2c(c1C#N)CCC(OC(=O)NCc1cnoc1C)C2 (stereo not shown) [Example 204, (5-Methyl-isoxazol-4-ylmethyl)-carbamic acid 3-cyano-2-[3-(2-ethoxy-phenyl)-propanoylamino]-4,5,6,7-tetrahydro-benzo[b]thiophen-6-yl ester] | ≥ 100000 | ≤ 501 |
| CCOc1ccccc1CCC(=O)Nc1sc2c(c1C#N)CCC(OC(=O)NCc1ccno1)C2 (stereo not shown) [Example 207, Isoxazol-5-ylmethyl-carbamic acid 3-cyano-2-[3-(2-ethoxy-phenyl)-propanoylamino]-4,5,6,7-tetrahydro-benzo[b]thiophen-6-yl ester] | ≥ 100000 | ≤ 501 |
| CCOc1ccccc1CCC(=O)Nc1sc2c(c1C#N)CCC(OC(=O)N1CCCC1)C2 (stereo not shown) [Example 208, Pyrrolidine-1-carboxylic acid 3-cyano-2-[3-(2-ethoxy-phenyl)-propanoylamino]-4,5,6,7-tetrahydro-benzo[b]thiophen-6-yl ester] | ≥ 100000 | ≤ 501 |
| CCOc1ccccc1CCC(=O)Nc1sc2c(c1C#N)CCC(OC(=O)OCc1cncs1)C2 (stereo not shown) [Example 211, Carbonic acid 3-cyano-2-[3-(2-ethoxy-phenyl)-propanoylamino]-4,5,6,7-tetrahydro-benzo[b]thiophen-6-yl ester thiazol-5-ylmethyl ester] | ≥ 100000 | 501 to 2000 |
| CCOc1ccccc1CCC(=O)Nc1sc2c(c1C#N)CCC(COC(=O)NCc1cnoc1C)C2 (stereo not shown) [Example 212, (5-Methyl-isoxazol-4-ylmethyl)-carbamic acid 3-cyano-2-[3-(2-ethoxy-phenyl)-propanoylamino]-4,5,6,7-tetrahydro-benzo[b]thiophen-6-ylmethyl ester] | ≥ 100000 | ≤ 501 |
| CCOc1ccccc1CCC(=O)Nc1sc2c(c1C#N)CCC(COC(=O)NCc1csc(C)n1)C2 (stereo not shown) [Example 213, (2-Methyl-thiazol-4-ylmethyl)-carbamic acid 3-cyano-2-[3-(2-ethoxy-phenyl)-propanoylamino]-4,5,6,7-tetrahydro-benzo[b]thiophen-6-ylmethyl ester] | ≥ 100000 | ≤ 501 |
| CCOc1ccccc1CCC(=O)Nc1sc2c(c1C#N)CCC(COC(=O)OCc1cncs1)C2 (stereo not shown) [Example 215, Carbonic acid 3-cyano-2-[3-(2-ethoxy-phenyl)-propanoylamino]-4,5,6,7-tetrahydro-benzo[b]thiophen-6-ylmethyl ester thiazol-5-ylmethyl ester] | ≥ 100000 | ≤ 501 |
